According to patent publication US20260125352A1, “PROCESSES FOR CONVERTING FURFURALS” (Origin Materials Operating, Inc., priority 2023, published 2026):

Assay: Solubility of amine and their hydrochlorides in solvents at room temperature
Type: physicochemical
Conditions: for Solubility of amines in acetone / Solubility of amines in methanol / Solubility of amines in methylfurfural (MF) / Solubility of amines in propylene carbonate / Solubility of amines in toluene / Solubility of amines in water: free amine, low values at saturation; for Solubility of amines in acetone / Solubility of amine hydrochloride salts in acetone: acetone μ = 20.7, high values not necessarily at saturation; for Solubility of amines in methanol / Solubility of amine hydrochloride salts in methanol: methanol μ = 32.7, high values not necessarily at saturation; for Solubility of amines in methylfurfural (MF) / Solubility of amine hydrochloride salts in methylfurfural (MF): methylfurfural (MF) μ = 41.9, high values not necessarily at saturation; for Solubility of amines in propylene carbonate / Solubility of amine hydrochloride salts in propylene carbonate: propylene carbonate μ = 64.9, high values not necessarily at saturation; for Solubility of amines in toluene / Solubility of amine hydrochloride salts in toluene: toluene μ = 2.4, high values not necessarily at saturation; for Solubility of amines in water / Solubility of amine hydrochloride salts in water: water μ = 78.4, high values not necessarily at saturation; for Solubility of amine hydrochloride salts in acetone / Solubility of amine hydrochloride salts in methanol / Solubility of amine hydrochloride salts in methylfurfural (MF) / Solubility of amine hydrochloride salts in propylene carbonate / Solubility of amine hydrochloride salts in toluene / Solubility of amine hydrochloride salts in water: hydrochloride salt of the amine precursor

Row | Compound | Solubility of amines in acetone [wt. %] | Solubility of amines in methanol [wt. %] | Solubility of amines in methylfurfural (MF) [wt. %] | Solubility of amines in propylene carbonate [wt. %] | Solubility of amines in toluene [wt. %] | Solubility of amines in water [wt. %] | Solubility of amine hydrochloride salts in acetone [wt. %] | Solubility of amine hydrochloride salts in methanol [wt. %] | Solubility of amine hydrochloride salts in methylfurfural (MF) [wt. %] | Solubility of amine hydrochloride salts in propylene carbonate [wt. %] | Solubility of amine hydrochloride salts in toluene [wt. %] | Solubility of amine hydrochloride salts in water [wt. %]
1 | CCN(C(C)C)C(C)C [Hunig's base] | 49.20 | 49.11 | 14.35 | 4.59 | 46.90 | 0.30 | 15.01 | 33.08 | 26.83 | 34.05 | <4.91 | 33.39
2 | CN(C)C [trimethylamine] |  |  |  |  |  | 47.16 | <0.09 | 34.66 | <0.13 | <1.16 | <0.12 | 38.39
3 | CC(C)CN(CC(C)C)CC(C)C [triisobutylamine, 2-methyl-N,N-bis(2-methylpropyl)propan-1-amine] |  |  |  |  |  |  | 34.35 | 47.15 | 24.44 | 31.21 | 51.82 | 25.88
4 | CCCCCN(CCCCC)CCCCC [triamylamine] | 49.87 | 9.27 | 2.49 | 0.17 | 47.61 | 0.00 |  |  |  |  |  | 
